The values that follow are results of earlier work, collected in patent US11612579B2, “Compositions comprising a fatty acid oil mixture and a surfactant, and methods and uses thereof” (PRONOVA BIOPHARMA NORGE AS, priority 2009, dated 2023).

Where “and” joins values, the source holds several entries; their conditions need not be identical. Equal values may be shown once.

The conditions of the data set: commercially-available surfactants.
In the case of `CCCCCCCCCCCCCCCCCC(=O)OCC(O)CO` (centres unmarked) [Glyceryl monostearate], the “HLB Value” was 3.3 and 3.8. `CCCCCCCCCCCCCCCC[N+](C)(C)C.[Br-]` [Cetrimonium bromide]: the “HLB Value” was 23.3.

As for `CCCCCCCCCCCC(=O)OCCOCCO` [Diethylene glycol monolaurate], the “HLB Value” is reported as 6.1.

sorbitan monooleate [Span ® 80]: the “HLB Value” is given as 4.3. As to `CCCCCCCCCCCCOS(=O)(=O)[O-].[Na+]` [Sodium lauryl sulphate], the “HLB Value” is listed as 40. With `CCCCCCCCCCCCCCCCCC(=O)OCCOC(=O)CCCCCCCCCCCCCCCCC` [Ethylene glycol distearate], the “HLB Value” is on record as 1.5. For the molecule sorbitan monostearate [Span ® 60], the “HLB Value” is given as 4.7.

Take sorbitan monopalmitate [Span ® 40]: the “HLB Value” is 6.7.
